{
  "source": "patent US20220153746A1",
  "about": "“NITROGEN OXIDE-DONATING PDE-5 AND/OR PDE-6 INHIBITOR COMPOUNDS, AND USES THEREOF” (ILDONG PHARMACEUTICAL CO., LTD., priority 2020, published 2022)",
  "assay": "TD Phase (Groups 1 and 3): plasma and ocular tissue concentrations and pharmacokinetics of Compound 18 and its metabolite Compound 4 after once daily ocular instillation of Compound 18 nanosuspension for 7 days",
  "assay_type": "in vivo, New Zealand white rabbits",
  "conditions": "for Cmax / Tmax / half-life / AUC(0-t): topical or ocular; for AUC(0-t): read-out: AUC0-8; for Metabolite/parent AUC ratio (Compound 4 vs Compound 18): TD phase",
  "description": "This example illustrates the procedures and results for the levels of Compound 18 and its metabolite Compound 4 in plasma and ocular tissues of normotensive rabbits following ocular instillation of Compound 18 once daily for 7 consecutive days.\nTwenty five (25) male New Zealand white rabbits were divided into 5 groups of varying amounts of animals per group.\nThe Test article, Compound 18 was formulated as a 2% nanosuspension in DI water containing 0.2% PS80 (polyoxyethylenesorbitan, monooleate (Tween 80)) and 0.4% HPMC (hydroxypropylmethylcellulose) at pH 6.77. Referred to herein as “Compound 18 nanosuspension.”\nThe study consisted of three groups (Groups 1-3) of 19 male rabbits (NZW) that underwent once daily morning ocular installation (1 eyedrop) for 7 consecutive days (Day 0-6). Groups 4-5 each consisted of 3 male rabbits (NZW) that were not dosed.\nBlood samples (1 mL) were collected from the jugular vein at the intervals set out below for each group. The samples were then inverted several times following collection and held on wet ice until centrifuged. Samples were centrifuged within 60 minutes of collection under refrigeration (set at 5° C. for 10 minutes at 2000 g.\nGroup 1 (Pilot Study, terminal blood collection): blood was collected from 3 animals at 1 hour post day 7 dose of Compound 18 nanosuspension.\nGroup 3 (TD Phase, terminal blood collection): blood was collected from 3 animals at 0.5 hour, 3 animals at 2 hours, 3 animals at 4 hours, and 3 animals at 8 hours post day 7 dose of Compound 18 nanosuspension.\n(§1) Group 1 (Pilot Study): 3 animals were terminated at 1 hour post Day 7 dose of Compound 18 nanosuspension. Following blood collection and termination, ocular tissues (aqueous humor, vitreous humor, cornea, iris/ciliary body, lens, optic nerve, retina, sclera/choroid, and trabecular meshwork) were collected from each animal and the tissue weights were recorded. Note: sclera and choroid were collected together. Iris and ciliary body were collected together.\nas §1, with “3 (TD Phase):” for “1 (Pilot Study):”, “0.5 hour, 3 animals at 2 hours, 3 animals at 4 hours, and 3 animals at 8 hours” for “1 hour”\nPlasma and tissue samples from treated animals (Groups 1-3) were analyzed for Compound 18 and its metabolite Compound 4 concentrations by LC-MS/MS.\nPharmacokinetic analysis was conducted using WinNonlin Version 6.2.1 (Pharsight, Mountain View, Calif.), operating as a validated software system. Noncompartmental analysis was conducted using the extravascular administration model for ocular instillation dosing.\nThe peak plasma and ocular tissue concentration, time to achieve peak plasma and ocular tissue concentration, half-life, and area under the plasma and ocular tissue concentration-time curve (Cmax, Tmax, T1/2, and AUC) were calculated from the TD phase combined with the pilot study mean animal plasma and ocular tissue concentrations for each sampling time/dose group for Compound 18 and its metabolite Compound 4.\nBA Assay: Quantitation Range 0.05 to 100 ng/mL for Compound 18, 0.15 to 100 ng/mL for Compound 4.\n3. Pipet 50 μL of each type of pre-spiked ocular tissue samples (AH/VH) for QC samples, 50 μL of incurred aqueous humor, and vitreous humor sample (if applicable) into a 96 well plate.\nOcular Tissues Homogenate Preparation: Incurred rabbit ocular tissues were weighed in Genogrinder tubes (plastic tubes with small beads) at the time of removal from the animal and stored frozen (<−70° C.) until analysis. The rabbit incurred ocular tissues were thawed on wet ice. […]",
  "key": {"[1]": {"conditions": "male, New Zealand white, rabbit, 0.8 mg/kg/day, optic nerve, Day 7, from mean concentrations"}, "[2]": {"conditions": "male, New Zealand white, rabbit, 0.8 mg/kg/day, plasma, Day 7, from mean concentrations"}, "[3]": {"conditions": "male, New Zealand white, rabbit, 0.8 mg/kg/day, retina, Day 7, from mean concentrations"}, "[4]": {"conditions": "male, New Zealand white, rabbit, 0.8 mg/kg/day, sclera/choroid, Day 7, from mean concentrations"}, "[5]": {"conditions": "male, New Zealand white, rabbit, 0.8 mg/kg/day, trabecular meshwork, Day 7, from mean concentrations"}, "[6]": {"conditions": "male, New Zealand white, rabbit, 0.8 mg/kg/day, vitreous humor, Day 7, from mean concentrations"}, "[7]": {"conditions": "male, New Zealand white, rabbit, Aqueous Humor, Day 7, Compound 18 0.8 mg/kg ocular instillation once daily, Groups 1 and 3"}, "[8]": {"conditions": "male, New Zealand white, rabbit, Cornea, Day 7, Compound 18 0.8 mg/kg ocular instillation once daily, Groups 1 and 3"}, "[9]": {"conditions": "male, New Zealand white, rabbit, Iris/Ciliary Body, Day 7, Compound 18 0.8 mg/kg ocular instillation once daily, Groups 1 and 3"}, "[10]": {"conditions": "male, New Zealand white, rabbit, Lens, Day 7, Compound 18 0.8 mg/kg ocular instillation once daily, Groups 1 and 3"}, "[11]": {"conditions": "male, New Zealand white, rabbit, Optic Nerve, Day 7, Compound 18 0.8 mg/kg ocular instillation once daily, Groups 1 and 3"}, "[12]": {"conditions": "male, New Zealand white, rabbit, Plasma, Day 7, Compound 18 0.8 mg/kg ocular instillation once daily, Groups 1 and 3"}, "[13]": {"conditions": "male, New Zealand white, rabbit, Retina, Day 7, Compound 18 0.8 mg/kg ocular instillation once daily, Groups 1 and 3"}, "[14]": {"conditions": "male, New Zealand white, rabbit, Sclera/Choroid, Day 7, Compound 18 0.8 mg/kg ocular instillation once daily, Groups 1 and 3"}, "[15]": {"conditions": "male, New Zealand white, rabbit, Trabecular Meshwork, Day 7, Compound 18 0.8 mg/kg ocular instillation once daily, Groups 1 and 3"}, "[16]": {"conditions": "male, New Zealand white, rabbit, Vitreous Humor, Day 7, Compound 18 0.8 mg/kg ocular instillation once daily, Groups 1 and 3"}},
  "note": "Where two headings read alike, the source gives them in different places.",
  "data": [
    {"smiles": "CCCc1nn(C)c2c(=O)[nH]c(-c3cc(S(=O)(=O)N4CC(CCCO)C4)ccc3OCC)nc12", "note": "[Compound 4, 5-(2-ethoxy-5-((3-(3-hydroxypropyl)azetidin-1-yl)sulfonyl)phenyl)-1-methyl-3-propyl-1,6-dihydro-7H-pyrazolo[4,3-d]pyrimidin-7-one]", "values": [
      {"measurement": "Cmax", "setting": "[1]", "result": 40.2, "unit": "ng/g"},
      {"measurement": "Tmax", "setting": "[1]", "result": 1, "unit": "h"},
      {"measurement": "half-life", "setting": "[1]", "result": 2.93, "unit": "h"},
      {"measurement": "Cmax", "setting": "[2]", "result": 1.02, "unit": "ng/mL"},
      {"measurement": "Tmax", "setting": "[2]", "result": 0.5, "unit": "h"},
      {"measurement": "half-life", "setting": "[2]", "result": 0.958, "unit": "h"},
      {"measurement": "AUC(0-t)", "setting": "[2]", "result": 1.57, "unit": "ng·h/mL"},
      {"measurement": "Cmax", "setting": "[3]", "result": 50.9, "unit": "ng/g"},
      {"measurement": "Tmax", "setting": "[3]", "result": 2, "unit": "h"},
      {"measurement": "half-life", "setting": "[3]", "result": 1.93, "unit": "h"},
      {"measurement": "Cmax", "setting": "[4]", "result": 303, "unit": "ng/g"},
      {"measurement": "Tmax", "setting": "[4]", "result": 4, "unit": "h"},
      {"measurement": "half-life", "setting": "[4]", "result": 1.74, "unit": "h"},
      {"measurement": "Cmax", "setting": "[5]", "result": 204, "unit": "ng/g"},
      {"measurement": "Tmax", "setting": "[5]", "result": 1, "unit": "h"},
      {"measurement": "half-life", "setting": "[5]", "result": 2.2, "unit": "h"},
      {"measurement": "Cmax", "setting": "[6]", "result": 2.32, "unit": "ng/mL"},
      {"measurement": "Tmax", "setting": "[6]", "result": 1, "unit": "h"},
      {"measurement": "half-life", "setting": "[6]", "result": 1.72, "unit": "h"},
      {"measurement": "AUC(0-t)", "setting": "[6]", "result": 9.9, "unit": "ng·h/mL"},
      {"measurement": "Cmax", "setting": "[7]", "result": 124, "unit": "ng/mL"},
      {"measurement": "Tmax", "setting": "[7]", "result": 1, "unit": "h"},
      {"measurement": "half-life", "setting": "[7]", "result": 1.95, "unit": "h"},
      {"measurement": "AUC(0-t)", "setting": "[7]", "result": 314, "unit": "ng·h/mL"},
      {"measurement": "Cmax", "setting": "[8]", "result": 3600, "unit": "ng/g"},
      {"measurement": "Tmax", "setting": "[8]", "result": 1, "unit": "h"},
      {"measurement": "half-life", "setting": "[8]", "result": 2.63, "unit": "h"},
      {"measurement": "Cmax", "setting": "[9]", "result": 980, "unit": "ng/g"},
      {"measurement": "Tmax", "setting": "[9]", "result": 1, "unit": "h"},
      {"measurement": "half-life", "setting": "[9]", "result": 2.11, "unit": "h"},
      {"measurement": "Cmax", "setting": "[10]", "result": 18.1, "unit": "ng/g"},
      {"measurement": "Tmax", "setting": "[10]", "result": 1, "unit": "h"},
      {"measurement": "half-life", "setting": "[10]", "result": 2.25, "unit": "h"},
      {"measurement": "Cmax", "setting": "[11]", "result": 40.2, "unit": "ng/g"},
      {"measurement": "Tmax", "setting": "[11]", "result": 1, "unit": "h"},
      {"measurement": "half-life", "setting": "[11]", "result": 2.93, "unit": "h"},
      {"measurement": "Cmax", "setting": "[12]", "result": 1.02, "unit": "ng/mL"},
      {"measurement": "Tmax", "setting": "[12]", "result": 0.5, "unit": "h"},
      {"measurement": "half-life", "setting": "[12]", "result": 0.958, "unit": "h"},
      {"measurement": "AUC(0-t)", "setting": "[12]", "result": 1.57, "unit": "ng·h/mL"},
      {"measurement": "Cmax", "setting": "[13]", "result": 50.9, "unit": "ng/g"},
      {"measurement": "Tmax", "setting": "[13]", "result": 2, "unit": "h"},
      {"measurement": "half-life", "setting": "[13]", "result": 1.93, "unit": "h"},
      {"measurement": "Cmax", "setting": "[14]", "result": 303, "unit": "ng/g"},
      {"measurement": "Tmax", "setting": "[14]", "result": 4, "unit": "h"},
      {"measurement": "half-life", "setting": "[14]", "result": 1.74, "unit": "h"},
      {"measurement": "Cmax", "setting": "[15]", "result": 204, "unit": "ng/g"},
      {"measurement": "Tmax", "setting": "[15]", "result": 1, "unit": "h"},
      {"measurement": "half-life", "setting": "[15]", "result": 2.2, "unit": "h"},
      {"measurement": "Cmax", "setting": "[16]", "result": 2.32, "unit": "ng/mL"},
      {"measurement": "Tmax", "setting": "[16]", "result": 1, "unit": "h"},
      {"measurement": "half-life", "setting": "[16]", "result": 1.72, "unit": "h"},
      {"measurement": "AUC(0-t)", "setting": "[16]", "result": 9.9, "unit": "ng·h/mL"},
      {"measurement": "concentration at 8 h", "setting": "male, New Zealand white, rabbit, trabecular meshwork, other: ocular instillation, 0.8 mg/kg/day, TD Phase, Group 3, 8 h, Mean, read-out: Final Compound 4 Trabecular Meshwork Conc.", "result": 13.9, "unit": "ng/g"},
      {"measurement": "AUC0-8", "setting": "optic nerve, Day 7, from mean concentrations", "result": 159, "unit": "ng·h/g"},
      {"measurement": "Metabolite/parent AUC ratio (Compound 4 vs Compound 18)", "setting": "optic nerve", "result": 0.133},
      {"measurement": "AUC0-8", "setting": "retina, Day 7, from mean concentrations", "result": 213, "unit": "ng·h/g"},
      {"measurement": "Metabolite/parent AUC ratio (Compound 4 vs Compound 18)", "setting": "retina", "result": 1.34},
      {"measurement": "AUC0-8", "setting": "sclera/choroid, Day 7, from mean concentrations", "result": 1494, "unit": "ng·h/g"},
      {"measurement": "Metabolite/parent AUC ratio (Compound 4 vs Compound 18)", "setting": "sclera/choroid", "result": 1.32},
      {"measurement": "AUC0-8", "setting": "trabecular meshwork, Day 7, from mean concentrations", "result": 533, "unit": "ng·h/g"},
      {"measurement": "Metabolite/parent AUC ratio (Compound 4 vs Compound 18)", "setting": "trabecular meshwork", "result": 18.0}
    ]}
  ]
}
